Reference: ChEMBL document CHEMBL6115030, “Systematic All-Hydrocarbon Stapling Analysis for Cecropin A Generates a Potent and Stable Antimicrobial Peptide” (J Med Chem, 2025)
Values after ≈ are worked out from the molar mass of the structure shown. Bridge positions count the residues as written; N and C are the ends. Square brackets hold non-standard residues; d marks the D form. Peptide text beside a SMILES is read from it. S5 = C=CCCC[C@](C)(N)C(=O)O

How the values were obtained:
Format in all cases: functional
Pseudomonas aeruginosa = assay: Antibacterial activity against Pseudomonas aeruginosa PAO1 assessed as inhibition of bacterial growth measured after 24 hrs by broth microdilution method
Klebsiella pneumoniae = assay: Antibacterial activity against Klebsiella pneumoniae ATCC 13883 assessed as inhibition of bacterial growth measured after 24 hrs by broth microdilution method
Staphylococcus aureus = assay: Antibacterial activity against Staphylococcus aureus ATCC 25923 assessed as inhibition of bacterial growth measured after 24 hrs by broth microdilution method

| MIC (Pseudomonas aeruginosa) [µM] | MIC (Klebsiella pneumoniae) [µM] | MIC (Staphylococcus aureus) [µM] | SMILES |
| --- | --- | --- | --- |
| 80 (≈ 327 µg/mL) | 6.25 (≈ 25.5 µg/mL) | 25 (≈ 102 µg/mL) | CC[C@H](C)[C@H](NC(=O)CNC(=O)[C@H](CC(=O)O)NC(=O)[C@H](CCCNC(=N)N)NC(=O)[C@]1(C)CCC/C=C\CCC[C@](C)(NC(=O)[C@H](CCCCN)NC(=O)[C@H](CCC(=O)O)NC(=O)[C@@H](NC(=O)[C@H](CCCCN)NC(=O)[C@H](CCCCN)NC(=O)[C@H](Cc2ccccc2)NC(=O)[C@H](CC(C)C)NC(=O)[C@H](CCCCN)NC(=O)[C@H](Cc2c[nH]c3ccccc23)NC(=O)[C@H](CCCCN)NC(C)=O)[C@@H](C)CC)C(=O)NCC(=O)N[C@@H](CCC(N)=O)C(=O)N[C@@H](CC(N)=O)C(=O)N1)C(=O)N[C@H](C(=O)N[C@@H](CCCCN)C(=O)N[C@@H](C)C(=O)NCC(=O)N1CCC[C@H]1C(=O)N[C@@H](C)C(=O)N[C@H](C(=O)N[C@@H](C)C(=O)N[C@H](C(=O)N[C@H](C(=O)NCC(=O)N[C@@H](CCC(N)=O)C(=O)N[C@@H](C)C(=O)N[C@H](C(=O)N[C@@H](CCC(N)=O)C(=O)N[C@H](C(=O)N[C@@H](C)C(=O)N[C@@H](CCCCN)C(N)=O)[C@@H](C)CC)[C@@H](C)O)C(C)C)C(C)C)C(C)C)[C@@H](C)CC (Ac-KWKLFKKIEK[S5]GQN[S5]RDGIIKAGPAVAVVGQATQIAK-NH2; staple (Z) 11-15) |
| > 100 | 6.25 (≈ 25.8 µg/mL) | 6.25 (≈ 25.8 µg/mL) | CC[C@H](C)[C@H](NC(=O)CNC(=O)[C@H](CC(=O)O)NC(=O)[C@H](CCCNC(=N)N)NC(=O)[C@@H](NC(=O)[C@H](CC(N)=O)NC(=O)[C@H](CCC(N)=O)NC(=O)[C@]1(C)CCC/C=C\CCC[C@](C)(NC(=O)[C@H](CCCCN)NC(=O)[C@H](CCCCN)NC(=O)[C@H](Cc2ccccc2)NC(=O)[C@H](CC(C)C)NC(=O)[C@H](CCCCN)NC(=O)[C@H](Cc2c[nH]c3ccccc23)NC(=O)[C@H](CCCCN)NC(C)=O)C(=O)N[C@@H](CCC(=O)O)C(=O)N[C@@H](CCCCN)C(=O)N[C@@H](C(C)C)C(=O)N1)[C@@H](C)CC)C(=O)N[C@H](C(=O)N[C@@H](CCCCN)C(=O)N[C@@H](C)C(=O)NCC(=O)N1CCC[C@H]1C(=O)N[C@@H](C)C(=O)N[C@H](C(=O)N[C@@H](C)C(=O)N[C@H](C(=O)N[C@H](C(=O)NCC(=O)N[C@@H](CCC(N)=O)C(=O)N[C@@H](C)C(=O)N[C@H](C(=O)N[C@@H](CCC(N)=O)C(=O)N[C@H](C(=O)N[C@@H](C)C(=O)N[C@@H](CCCCN)C(N)=O)[C@@H](C)CC)[C@@H](C)O)C(C)C)C(C)C)C(C)C)[C@@H](C)CC (Ac-KWKLFKK[S5]EKV[S5]QNIRDGIIKAGPAVAVVGQATQIAK-NH2; staple (Z) 8-12) |
| 6.25 (≈ 25.6 µg/mL) | 6.25 (≈ 25.6 µg/mL) | 3.13 (≈ 12.8 µg/mL) | CC[C@H](C)[C@H](NC(=O)CNC(=O)[C@H](CC(=O)O)NC(=O)[C@H](CCCNC(=N)N)NC(=O)[C@@H](NC(=O)[C@H](CC(N)=O)NC(=O)[C@H](CCC(N)=O)NC(=O)CNC(=O)[C@@H](NC(=O)[C@H](CCCCN)NC(=O)[C@H](CCC(=O)O)NC(=O)[C@@H](NC(=O)[C@H](CCCCN)NC(=O)[C@H](CCCCN)NC(=O)[C@H](Cc1ccccc1)NC(=O)[C@H](CC(C)C)NC(=O)[C@H](CCCCN)NC(=O)[C@H](Cc1c[nH]c2ccccc12)NC(=O)[C@H](CCCCN)NC(C)=O)[C@@H](C)CC)C(C)C)[C@@H](C)CC)C(=O)N[C@H](C(=O)N[C@@H](CCCCN)C(=O)N[C@@H](C)C(=O)NCC(=O)N1CCC[C@H]1C(=O)N[C@@H](C)C(=O)N[C@H](C(=O)N[C@@]1(C)CCC/C=C\CCC[C@@](C)(C(=O)N[C@@H](C)C(=O)N[C@H](C(=O)N[C@@H](CCC(N)=O)C(=O)N[C@H](C(=O)N[C@@H](C)C(=O)N[C@@H](CCCCN)C(N)=O)[C@@H](C)CC)[C@@H](C)O)NC(=O)CNC(=O)[C@H](C(C)C)NC(=O)[C@H](C(C)C)NC1=O)C(C)C)[C@@H](C)CC (Ac-KWKLFKKIEKVGQNIRDGIIKAGPAV[S5]VVG[S5]ATQIAK-NH2; staple (Z) 27-31) |
